From patent US20240158418A1 (C4 Therapeutics, Inc., priority 2021, published 2024)

Columns and labels:
NCI-H1975 cells = assay: Global proteomics (TMT), NCI-H1975; assay type: cell-based, human
Protocol: Each cell line was treated in duplicate with either DMSO or Compound 1 (final concentration 300 nM) for 6 hours in an incubator at 37° C. with 5% CO2. After 6 hour incubation, cells were harvested, washed twice with PBS, and snap frozen in liquid nitrogen. Samples were re-suspended in lysis buffer [8 M urea, 50 mM HEPS (pH 8.5), 50 mM NaCl, 1× protease inhibitor cocktail] and lysed by sonication at 4° C. with 85% amplitude in a pulse setting with 30 seconds on and 30 seconds off for a total sonication time of 5 minutes. Lysates were centrifuged at maximum speed for 10 minutes at 4° C. and the supernatant collected, reduced for 1 hour at room temperature with 5 mM TCEP, and the cysteine residues were then alkylated with 15 mM iodoacetamide (room temperature, in dark, 30 minutes). Protein content was extracted by methanol-chloroform precipitation and subsequent ice-cold acetone washes. Protein pellets were resuspended in 8 M urea, 50 mM HEPES (pH 8.5) buffer and protein concentrations were measured by BCA assay. […]
6 μL of each sample was separated by reversed phase chromatography using an EASY-Spray C18 column (2 μm particle size, 500 mm length×75 μm ID) mounted in an EASY-nLC 1200 LC pump coupled to an Orbitrap Fusion Lumos Tribid mass spectrometer. […] TMT reporter ion intensities were quantified by extracting the signal-to-noise ratio for each. […]

[1] = biological target: T1, Sal-like protein 4 (SALL4) (Homo sapiens, UniProt Q9UJQ4); assay: SALL4 degradation, HiBiT-tagged SALL4 in KELLY cells; assay type: cell-based; conditions: 6 hours, up to 10 μM
T1 construct: Endogenous expression of SALL4 in KELLY cells was determined by addition of C-terminal HiBiT tag; host or cells: KELLY (CRISPR-Cas9 HiBiT knock-in)
Protocol: Specific studies were carried out to assess the ability of Compound 1 to degrade Sal-like protein 4 (SALL4), a protein implicated in the teratogenicity induced by the IMiD®s class of IKZF1/IKZF3 degraders including lenalidomide (Matyskiela et al., Crystal structure of the SALL4-pomalidomide-cereblon-DDB1 complex, Nature Structural and Molecular Biology, (2020) 27, 319-322). Endogenous expression of SALL4 in KELLY cells was determined by addition of C-terminal HiBiT tag to the KELLY cell line (DSMZ ACC355) using CRISPR-Cas9. Briefly, test compound was added to 384-well plates at a top concentration of 1 μM with 11 points, half log titration in duplicates. KELLY cells expressing HiBiT-tagged SALL4 were seeded into the 384-well plates in RPMI medium containing 10% FBS and 2 mM pyruvate at a cell density of 6000 cells per well. Cells treated in the absence of the test compound were the negative control and wells containing media only were the positive control. Following compound treatment, cells were incubated at 37° C. with 5% CO2 for 6 hr. HiBiT signal was determined using Nano-Glo™ HiBiT Lytic Assay System (Promega, N3050) and luminescence was acquired on EnVision™ Multilabel Reader (PerkinElmer, Santa Clara, CA, USA). % SALL4 remaining was determined by normalizing the signal with positive and negative controls on the same microtiter plate. Data in FIG. 7 are expressed as the mean±SD. […]

T1 sequence (Q96SW2 whole entry partner): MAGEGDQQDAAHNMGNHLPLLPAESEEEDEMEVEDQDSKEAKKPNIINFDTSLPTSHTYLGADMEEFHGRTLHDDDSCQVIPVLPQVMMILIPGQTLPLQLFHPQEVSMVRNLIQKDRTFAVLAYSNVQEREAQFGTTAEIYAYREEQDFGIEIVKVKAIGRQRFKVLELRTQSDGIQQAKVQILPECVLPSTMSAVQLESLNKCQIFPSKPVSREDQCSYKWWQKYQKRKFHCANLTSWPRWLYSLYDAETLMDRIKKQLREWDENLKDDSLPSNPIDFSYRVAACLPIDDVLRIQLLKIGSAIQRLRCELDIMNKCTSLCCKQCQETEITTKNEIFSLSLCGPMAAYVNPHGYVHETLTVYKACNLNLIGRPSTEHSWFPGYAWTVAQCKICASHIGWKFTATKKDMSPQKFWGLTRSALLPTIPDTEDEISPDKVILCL
T1 sequence (Q16531 whole entry partner): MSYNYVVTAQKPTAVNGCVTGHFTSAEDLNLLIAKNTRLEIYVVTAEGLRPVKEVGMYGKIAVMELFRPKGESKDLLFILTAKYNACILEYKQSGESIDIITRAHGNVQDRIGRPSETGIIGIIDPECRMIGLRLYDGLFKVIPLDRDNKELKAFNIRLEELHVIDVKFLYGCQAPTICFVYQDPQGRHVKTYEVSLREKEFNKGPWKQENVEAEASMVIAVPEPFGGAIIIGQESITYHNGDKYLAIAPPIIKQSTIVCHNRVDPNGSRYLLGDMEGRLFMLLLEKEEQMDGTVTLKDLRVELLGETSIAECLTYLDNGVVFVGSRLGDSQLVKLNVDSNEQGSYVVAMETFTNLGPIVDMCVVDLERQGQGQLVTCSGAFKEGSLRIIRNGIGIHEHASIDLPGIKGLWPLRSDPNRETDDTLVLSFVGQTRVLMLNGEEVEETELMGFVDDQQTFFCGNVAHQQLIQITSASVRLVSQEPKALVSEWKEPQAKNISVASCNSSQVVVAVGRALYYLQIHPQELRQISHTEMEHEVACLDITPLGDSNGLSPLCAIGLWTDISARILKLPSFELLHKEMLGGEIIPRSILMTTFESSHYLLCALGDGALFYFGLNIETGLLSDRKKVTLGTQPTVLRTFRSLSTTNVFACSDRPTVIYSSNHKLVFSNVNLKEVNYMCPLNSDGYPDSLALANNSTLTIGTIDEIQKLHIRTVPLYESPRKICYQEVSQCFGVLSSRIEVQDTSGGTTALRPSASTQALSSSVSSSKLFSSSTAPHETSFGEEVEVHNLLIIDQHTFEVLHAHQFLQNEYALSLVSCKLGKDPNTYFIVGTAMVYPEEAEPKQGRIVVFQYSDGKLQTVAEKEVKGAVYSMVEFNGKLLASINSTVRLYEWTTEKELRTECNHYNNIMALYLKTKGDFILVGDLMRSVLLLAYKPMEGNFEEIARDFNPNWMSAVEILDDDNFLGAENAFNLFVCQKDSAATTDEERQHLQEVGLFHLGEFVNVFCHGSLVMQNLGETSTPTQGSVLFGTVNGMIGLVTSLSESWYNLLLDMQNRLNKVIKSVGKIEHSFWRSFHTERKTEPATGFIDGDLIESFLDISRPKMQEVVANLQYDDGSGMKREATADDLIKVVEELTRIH
T1 sequence (Q9UJQ4 whole entry): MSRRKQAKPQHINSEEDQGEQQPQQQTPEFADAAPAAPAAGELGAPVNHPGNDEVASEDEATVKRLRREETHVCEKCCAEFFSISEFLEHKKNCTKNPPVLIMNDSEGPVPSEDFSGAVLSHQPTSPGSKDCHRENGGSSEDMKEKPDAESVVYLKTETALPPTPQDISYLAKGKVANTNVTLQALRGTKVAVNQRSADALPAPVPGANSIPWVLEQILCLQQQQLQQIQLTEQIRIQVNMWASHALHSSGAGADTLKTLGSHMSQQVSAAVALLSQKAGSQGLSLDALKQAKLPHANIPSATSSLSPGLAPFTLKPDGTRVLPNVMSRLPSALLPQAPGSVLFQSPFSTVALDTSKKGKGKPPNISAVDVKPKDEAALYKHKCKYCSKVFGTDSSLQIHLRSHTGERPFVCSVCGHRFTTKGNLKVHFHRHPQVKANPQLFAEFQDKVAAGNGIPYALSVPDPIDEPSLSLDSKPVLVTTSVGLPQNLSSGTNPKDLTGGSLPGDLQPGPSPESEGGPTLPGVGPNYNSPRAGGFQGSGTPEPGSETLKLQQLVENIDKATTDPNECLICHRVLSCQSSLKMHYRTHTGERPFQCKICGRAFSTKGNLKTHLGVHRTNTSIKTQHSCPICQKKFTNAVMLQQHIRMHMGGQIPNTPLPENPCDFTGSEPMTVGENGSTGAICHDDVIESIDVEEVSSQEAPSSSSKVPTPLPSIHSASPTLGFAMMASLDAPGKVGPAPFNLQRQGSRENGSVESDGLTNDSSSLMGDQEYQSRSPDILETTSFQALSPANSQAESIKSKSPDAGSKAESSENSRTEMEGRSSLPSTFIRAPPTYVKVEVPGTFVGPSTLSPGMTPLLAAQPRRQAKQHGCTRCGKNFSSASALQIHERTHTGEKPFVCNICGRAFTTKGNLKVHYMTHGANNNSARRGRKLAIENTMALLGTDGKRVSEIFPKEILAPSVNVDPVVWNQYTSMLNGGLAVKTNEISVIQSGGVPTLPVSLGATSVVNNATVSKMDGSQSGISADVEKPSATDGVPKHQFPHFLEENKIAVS

Compound: O=C1CC[C@H](Nc2ccc(N3CCC(O)(CC(=O)N4CC5(C4)CN(c4ccc(-c6cc(F)c7c(c6)C(=O)N(C(C(=O)Nc6nccs6)c6ncn8c6CCC8)C7)cc4)C5)CC3)c(F)c2)C(=O)N1 (stereo partly drawn) [Compound 1, 2-(6,7-dihydro-5H-pyrrolo[1,2-c]imidazol-1-yl)-2-[6-[4-[2-[2-[1-[4-[[(3S)-2,6-dioxo-3-piperidyl]amino]-2-fluoro-phenyl]-4-hydroxy-4-piperidyl]acetyl]-2,6-diazaspiro[3.3]heptan-6-yl]phenyl]-4-fluoro-1-oxo-isoindolin-2-yl]-N-thiazol-2-yl-acetamide]
- degradation selectivity for mutant EGFR-L858R over non-EGFR proteins (NCI-H1975 cells): highly selective
- SALL4 degradation (% SALL4 remaining) [1]: no effect
